Measured values as given in US4738971A, “N-aryl-1,2-dihydro-4-substituted-1-alkyl-2-oxo-quinoline-3-carboxamides” (priority 1981, dated 1988).
Read-outs that look alike come from different tables or passages of the source.

Legend:
[1] = tested on: carrageenan-induced edema; assay: carrageenan edema test in rats; format: in vivo, rat (female Sprague-Dawley); conditions: Rattus norvegicus, po; 80 mg/kg p.o., 30 min before carrageenan; edema weight 3 h after, vs control; preliminary; read-out: Potentiation of the carrageenan edema, %
How it was run: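 Female Sprague-Dawley rats (110-120 g, ≥10 per group) received compound intragastrically in aqueous methocel 30 min before plantar carrageenan injection into the right hind paw. At 3 h, right minus left paw weight gave edema weight, expressed as percent of methocel controls.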

[2] = tested on: delayed hypersensitivity reaction (pertussis vaccine pleurisy); assay: pertussis vaccine pleurisy test in rats; format: in vivo, rat (male Sprague-Dawley); conditions: for change in vivo at 10 mg/kg: Rattus norvegicus, po, 48 h, read-out: Enhancement of the delayed hypersensitivity reaction assessed by the exudate vol.
How it was run: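 Male Sprague-Dawley rats (250-275 g, ≥10/group) sensitized day 0 with heat-killed B. pertussis in Freund's incomplete adjuvant into hind and forepaw, challenged intrapleurally day 12. Compounds in aqueous methocel given intragastrically once daily days 10-13. Pleural exudate volume measured day 14, expressed as percent of methocel control.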

[3] = tested on: delayed hypersensitivity reaction (adjuvant arthritis, Mycobacterium butyricum); assay: adjuvant arthritis test in rats; format: in vivo, rat (male Lister hooded)
Text: (§1) The adjuvant arthritis test in rats produces a measureable extent of a delayed hypersensitivity reaction and can be used for a determination of variations in the extent of the delayed hypersensitivity reaction upon drug administration to the host. An increase in the extent of the delayed hypersensitivity reaction upon drug administration consequently indicates enhanced cell-mediated immunity in the host.
This example illustrates the effect of the compounds of the general formula I in the adjuvant arthritis test in rats.
as §1, with “produces” for “produces a measureable extent of”, “variations” for “variations in the extent”
A modification of a method described in (12) was used. Male Lister hooded rats weighing 250-275 g were used. At least 9 animals were used in each experimental group.
A single intradermal injection of 0.5 mg/0.1 ml heat killed Mycobacterium butyricum suspended in sterile liquid paraffinum was given into the right hind foot of all rats. After this injection, day 0, the volume of the left hind paw, measured by water displacement, was followed to the end of the experiment.
The substances suspended in aqueous methocel solution 10 ml/kg were given intragastrically. The control group was given methocel solution 10 ml/kg. The different groups of animals were thus treated once daily from day -4 to day 14. The effect of the substances was assessed by the left foot volume expressed in percent after comparison with the control groups.

[4] = 10 mg/kg p.o., once daily day 10 to day 13, vs control, preliminary
[5] = Rattus norvegicus, po, 336 h, 40 mg/kg p.o., once daily day -4 to day 14, vs control, preliminary, read-out: Increase of the volume of the left foot

Q: How did the change in vivo at 80 mg/kg [1] turn out when `Cn1c(=O)c(C(=O)Nc2ccccc2)c(O)c2ccccc21` [1:1, N-phenyl-1,2-dihydro-4-hydroxy-1-methyl-2-oxo-quinoline-3-carboxamide] was run?
A: 40%

Q: What about the change in vivo at 10 mg/kg [2, 4] of the same molecule?
A: 55%

Q: And the change in vivo at 20 mg/kg ([3]; Rattus norvegicus, po, 336 h, 20 mg/kg p.o., once daily day -4 to day 14, vs control, preliminary, read-out: Increase of the volume of the left foot)?
A: 50%

Q: What about the change in vivo at 40 mg/kg [3, 5] of the same molecule?
A: 41%

Q: How did the change in vivo at 80 mg/kg [1] turn out when `COc1ccc2c(c1)c(O)c(C(=O)Nc1ccccc1)c(=O)n2C` [1:2, N-phenyl-1,2-dihydro-4-hydroxy-6-methoxy-1-methyl-2-oxo-quinoline-3-carboxamide] was run?
A: 61%

Q: What about the “significant enhancing effect in the pertussis vaccine pleurisy test” value (“significant enhancing effect” below) ([2]; 10 mg/kg p.o.) of the same molecule?
A: significant enhancing effect

Q: What about the “significant potentiating effect in the adjuvant arthritis test” value (from here on “significant potentiating effect”) ([3]; 40 mg/kg p.o.) of the same molecule?
A: significant potentiating effect

Q: For `Cn1c(=O)c(C(=O)Nc2ccc(Cl)cc2)c(O)c2ccccc21` [1:9, N-/4-chlorophenyl/-1,2-dihydro-4-hydroxy-1-methyl-2-oxo-quinoline-3-carboxamide], which change in vivo at 80 mg/kg [1] is on record?
A: 48%

Q: And the “significant enhancing effect” value ([2]; 10 mg/kg p.o.)?
A: significant enhancing effect

Q: What about the “significant potentiating effect” value ([3]; 40 mg/kg p.o.) of the same molecule?
A: significant potentiating effect

Q: `CCn1c(=O)c(C(=O)Nc2ccccc2)c(O)c2ccccc21` [1:10, N-phenyl-1,2-dihydro-1-ethyl-4-hydroxy-2-oxo-quinoline-3-carboxamide] was tested. Which change in vivo at 80 mg/kg [1] did it give?
A: 68%

Q: What about the change in vivo at 10 mg/kg [2, 4] of the same molecule?
A: 30%

Q: What about the “significant potentiating effect” value ([3]; 40 mg/kg p.o.) of the same molecule?
A: significant potentiating effect

Q: Which change in vivo at 80 mg/kg [1] does the source give for `CN(C)c1ccc(NC(=O)c2c(O)c3ccccc3n(C)c2=O)cc1` [1:11, N-/4-dimethylaminophenyl/-1,2-dihydro-4-hydroxy-1-methyl-2-oxo-quinoline-3-carboxamide] here?
A: 76%

Q: What about the change in vivo at 10 mg/kg [2, 4] of the same molecule?
A: 37%

Q: And the change in vivo at 40 mg/kg [3, 5]?
A: 45%

Q: With `Cn1c(=O)c(C(=O)Nc2ccc(CC(=O)O)cc2)c(O)c2ccccc21` [1:12, N-/4-carboxymethylphenyl/-1,2-dihydro-4-hydroxy-1-methyl-2-oxo-quinoline-3-carboxamide] as the molecule, how does the change in vivo at 80 mg/kg [1] read?
A: 29%

Q: What about the change in vivo at 10 mg/kg [2, 4] of the same molecule?
A: 65%

Q: And the “significant potentiating effect” value ([3]; 40 mg/kg p.o.)?
A: significant potentiating effect

Q: `Cn1c(=O)c(C(=O)Nc2ccccc2)c(O)c2c(F)cccc21` [1:19, N-phenyl-1,2-dihydro-5-fluoro-4-hydroxy-1-methyl-2-oxo-quinoline-3-carboxamide] was tested. Which change in vivo at 80 mg/kg [1] did it give?
A: 67%

Q: What about the “significant enhancing effect” value ([2]; 10 mg/kg p.o.) of the same molecule?
A: significant enhancing effect

Q: And the “significant potentiating effect” value ([3]; 40 mg/kg p.o.)?
A: significant potentiating effect

Q: How did the change in vivo at 80 mg/kg [1] turn out when `COc1cccc2c(O)c(C(=O)Nc3ccccc3)c(=O)n(C)c12` [1:22, N-phenyl-1,2-dihydro-4-hydroxy-8-methoxy-1-methyl-2-oxo-quinoline-3-carboxamide] was run?
A: 58%

Q: And the “significant enhancing effect” value ([2]; 10 mg/kg p.o.)?
A: significant enhancing effect

Q: What about the “significant potentiating effect” value ([3]; 40 mg/kg p.o.) of the same molecule?
A: significant potentiating effect

Q: Which results are given for `CN(C(=O)c1c(O)c2ccccc2n(C)c1=O)c1ccccc1` [1:43, N-phenyl-N-methyl-1,2-dihydro-4-hydroxy-1-methyl-2-oxo-quinoline-3-carboxamide]?
A: change in vivo at 80 mg/kg [1]: 84%; change in vivo at 10 mg/kg [2, 4]: 70%; significant potentiating effect in the adjuvant arthritis test ([3]; 40 mg/kg p.o.): significant potentiating effect; change in vivo at 10 mg/kg ([3]; Rattus norvegicus, po, 336 h, 10 mg/kg p.o., once daily day -4 to day 14, vs control, preliminary, read-out: Increase of the volume of the left foot): 48%

Q: `O=C(Nc1ccccc1)c1c(O)c2cccc3c2n(c1=O)CC3` [2:2, N-phenyl-1,2-dihydro-1,8-ethylene-4-hydroxy-2-oxo-quinoline-3-carboxamide] was tested. Which change in vivo at 80 mg/kg [1] did it give?
A: 43%

Q: What about the change in vivo at 10 mg/kg [2, 4] of the same molecule?
A: 64%

Q: And the change in vivo at 40 mg/kg [3, 5]?
A: 40%

Q: With `O=C(Nc1ccccc1)c1c(O)c2cccc3c2n(c1=O)CCC3` [2:3, N-phenyl-1,2-dihydro-4-hydroxy-2-oxo-1,8-trimethylene-quinoline-3-carboxamide] as the molecule, how does the change in vivo at 80 mg/kg [1] read?
A: 61%

Q: What about the change in vivo at 10 mg/kg [2, 4] of the same molecule?
A: 66%

Q: What about the change in vivo at 40 mg/kg [3, 5] of the same molecule?
A: 39%

Q: What does the source list for `COc1c(C(=O)Nc2ccccc2)c(=O)n(C)c2ccccc12` [6:1, N-phenyl-1,2-dihydro-4-methoxy-1-methyl-2-oxo-quinoline-3-carboxamide]?
A: change in vivo at 80 mg/kg [1]: 60%; change in vivo at 10 mg/kg [2, 4]: 91%; change in vivo at 40 mg/kg [3, 5]: 34%

Q: `CN(C(=O)c1c(O)c2ccccc2n(C)c1=O)c1ccc(O)cc1` [21:11, N-(4-hydroxyphenyl)-N-methyl-1,2-dihydro-4-hydroxy-1-methyl-2-oxo-quinoline-3-carboxamide] was tested. Which change in vivo at 10 mg/kg [2, 4] did it give?
A: 34%

Q: And the “significant potentiating effect” value ([3]; 40 mg/kg p.o.)?
A: significant potentiating effect

Q: `COc1cccc(N(C)C(=O)c2c(O)c3cc(C)ccc3n(C(C)C)c2=O)c1` [21:17, N-(3-methoxyphenyl)-N-methyl-1,2-dihydro-4-hydroxy-1-isopropyl-6-methyl-2-oxo-quinoline-3-carboxamide] was tested. Which “significant enhancing effect” value ([2]; 10 mg/kg p.o.) did it give?
A: significant enhancing effect

Q: And the “significant potentiating effect” value ([3]; 40 mg/kg p.o.)?
A: significant potentiating effect

Q: How did the “significant potentiating effect” value ([3]; 40 mg/kg p.o.) turn out when `CN(C(=O)c1c(O)c2ccccc2n(-c2ccc(F)cc2)c1=O)c1ccc(N2CCCC2)cc1` [21:19, N-methyl-N-(4-pyrrolidinophenyl)-1-(4-fluorophenyl)-1,2-dihydro-4-hydroxy-2-oxo-quinoline-3-carboxamide] was run?
A: significant potentiating effect

Q: What does the source list for `CN(C(=O)c1c(O)c2ccccc2n(C)c1=O)c1cnccn1` [21:23, N-methyl-N-pyrazinyl-1,2-dihydro-4-hydroxy-1-methyl-2-oxo-quinoline-3-carboxamide]?
A: significant enhancing effect in the pertussis vaccine pleurisy test ([2]; 10 mg/kg p.o.): significant enhancing effect; significant potentiating effect in the adjuvant arthritis test ([3]; 40 mg/kg p.o.): significant potentiating effect

Q: For `Cc1cc(N(C)C(=O)c2c(O)c3cc(Cl)ccc3n(C)c2=O)sn1` [21:24, N-methyl-N-(3-methyl-5-isothiazolyl)-6-chloro-1,2-dihydro-4-hydroxy-1-methyl-2-oxo-quinoline-3-carboxamide], which “significant enhancing effect” value ([2]; 10 mg/kg p.o.) is on record?
A: significant enhancing effect

Q: What about the “significant potentiating effect” value ([3]; 40 mg/kg p.o.) of the same molecule?
A: significant potentiating effect

Q: For `CCN(C(=O)c1c(O)c2cc(N(C)C)ccc2n(C)c1=O)c1ccccn1` [21:26, N-ethyl-N-2-pyridyl-1,2-dihydro-6-dimethylamino-4-hydroxy-1-methyl-2-oxo-quinoline-3-carboxamide], which “significant enhancing effect” value ([2]; 10 mg/kg p.o.) is on record?
A: significant enhancing effect

Q: And the “significant potentiating effect” value ([3]; 40 mg/kg p.o.)?
A: significant potentiating effect

Q: Which “significant enhancing effect” value ([2]; 10 mg/kg p.o.) does the source give for `COc1ccc(N(C)C(=O)c2c(O)c3cccc4c3n(c2=O)CC4)cc1` [21:28, N-(4-methoxyphenyl)-N-methyl-1,2-dihydro-1,8-ethylene-4-hydroxy-2-oxo-quinoline-3-carboxamide] here?
A: significant enhancing effect

Q: What about the “significant potentiating effect” value ([3]; 40 mg/kg p.o.) of the same molecule?
A: significant potentiating effect

Q: Which “significant enhancing effect” value ([2]; 10 mg/kg p.o.) does the source give for `CN(C)c1ccc(N(C)C(=O)c2c(O)c3cccc4c3n(c2=O)CC4)cc1` [21:30, N-(4-dimethylaminophenyl)-N-methyl-1,2-dihydro-1,8-ethylene-4-hydroxy-2-oxo-quinoline-3-carboxamide] here?
A: significant enhancing effect

Q: What about the “significant potentiating effect” value ([3]; 40 mg/kg p.o.) of the same molecule?
A: significant potentiating effect

Q: For `CN(C(=O)c1c(O)c2cccc3c2n(c1=O)CC3)c1nccs1` [21:31, N-methyl-N-2-thiazolyl-1,2-dihydro-1,8-ethylene-4-hydroxy-2-oxo-quinoline-3-carboxamide], which “significant enhancing effect” value ([2]; 10 mg/kg p.o.) is on record?
A: significant enhancing effect

Q: And the “significant potentiating effect” value ([3]; 40 mg/kg p.o.)?
A: significant potentiating effect

Q: For `CCN(C(=O)c1c(O)c2cccc3c2n(c1=O)CCC3)c1ccccn1` [21:33, N-ethyl-N-2-pyridyl-1,2-dihydro-4-hydroxy-2-oxo-1,8-trimethylene-quinoline-3-carboxamide], which “significant enhancing effect” value ([2]; 10 mg/kg p.o.) is on record?
A: significant enhancing effect

Q: And the “significant potentiating effect” value ([3]; 40 mg/kg p.o.)?
A: significant potentiating effect

Q: Which results are given for `CC(C)(S)[C@@H](N)C(=O)O` [Penicillamine, penicillamine, reference compound]?
A: change in vivo at 10 mg/kg [2]: 17%; change in vivo at 40 mg/kg ([3]; Rattus norvegicus, po, 336 h, read-out: Increase of the volume of the left foot): 0%
